In US20260356810A1, “NOVEL PIPERAZINE-BASED SULFONAMIDES AND THEIR USE AS NEUROPROTECTIVE AND/OR NEURORESTORATIVE AGENTS” (GENECODE, priority 2022, published 2026):
Read-outs that look alike come from different tables or passages of the source.

Target: T1, GFRα1-RET (Homo sapiens, UniProt P56159)
T1 construct: expressed in transfected cells; host or cells: MG87 murine fibroblast
Test: Luciferase assay: activation of Elk1 signaling in reporter-gene cells expressing GFRα1-RET (MG87 murine fibroblast stably transfected with PathDetect Elk-1, GFRα1, and RET)
Type: cell-based
Experimental: The purpose of this experiment was to evaluate the GFRα1-RET activity of the compounds 001-060 according to the invention.
The compounds were tested for their activating activity of Elk1 signaling using the previously developed reporter-gene-based system in cells expressing GFRα1-RET (MG87 murine fibroblast stably transfected with PathDetect Elk-1, GFRα1, and RET) disclosed in Sidorova, Y. A. et al.: “Persephin signaling through GFRα1: The potential for the treatment of Parkinson's disease.” Molecular and Cellular Neuroscience, July 2010, Vol. 44, pp. 223-232. DOI: 10.1016/j.mcn.2010.03.009. For EC50 determination, a dose-response test was performed using 6 concentrations of each tested compound. Dose-response curves were fitted using the sigmoidal dose-response (variable slope) analysis in GraphPad Prism program (Graph Pad Inc) and EC50 of agonist/activator activity was calculated. Dose-response experiments were all performed in duplicate, two times independently.
The compounds were tested for their activating activity of Elk1 signaling using the same materials and methods than for the compounds according to the invention (Example 2 herein, section “Materials and methods”).

[1] = Table 4, MG87 murine fibroblasts with PathDetect Elk-1, GFRα1, RET, 6 concentrations, duplicate, two times independently, agonist/activator activity, read-out: Luciferase Assay EC50
[2] = Table 6, comparison with comparative compounds, values for 001, 009, 010 reported from Table 4, MG87 GFRα1-RET cells, read-out: Luciferase Assay EC50
[3] = text statement on Table 6 results, GFRα1-RET luciferase assay, read-out: EC50

T1 sequence (P56159 25-429 limits assumed): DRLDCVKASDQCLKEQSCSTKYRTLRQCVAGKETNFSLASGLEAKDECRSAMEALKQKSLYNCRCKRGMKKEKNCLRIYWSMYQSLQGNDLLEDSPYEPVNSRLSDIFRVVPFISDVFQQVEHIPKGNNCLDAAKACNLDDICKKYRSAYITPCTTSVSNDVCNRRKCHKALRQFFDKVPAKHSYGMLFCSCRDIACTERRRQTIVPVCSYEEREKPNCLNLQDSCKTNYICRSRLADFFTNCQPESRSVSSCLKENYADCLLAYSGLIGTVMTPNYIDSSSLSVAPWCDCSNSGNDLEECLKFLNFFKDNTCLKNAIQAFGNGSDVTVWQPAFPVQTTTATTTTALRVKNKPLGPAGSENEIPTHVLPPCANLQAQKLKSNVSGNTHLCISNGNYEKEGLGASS
T1 sequence (P07949 29-1114 partner): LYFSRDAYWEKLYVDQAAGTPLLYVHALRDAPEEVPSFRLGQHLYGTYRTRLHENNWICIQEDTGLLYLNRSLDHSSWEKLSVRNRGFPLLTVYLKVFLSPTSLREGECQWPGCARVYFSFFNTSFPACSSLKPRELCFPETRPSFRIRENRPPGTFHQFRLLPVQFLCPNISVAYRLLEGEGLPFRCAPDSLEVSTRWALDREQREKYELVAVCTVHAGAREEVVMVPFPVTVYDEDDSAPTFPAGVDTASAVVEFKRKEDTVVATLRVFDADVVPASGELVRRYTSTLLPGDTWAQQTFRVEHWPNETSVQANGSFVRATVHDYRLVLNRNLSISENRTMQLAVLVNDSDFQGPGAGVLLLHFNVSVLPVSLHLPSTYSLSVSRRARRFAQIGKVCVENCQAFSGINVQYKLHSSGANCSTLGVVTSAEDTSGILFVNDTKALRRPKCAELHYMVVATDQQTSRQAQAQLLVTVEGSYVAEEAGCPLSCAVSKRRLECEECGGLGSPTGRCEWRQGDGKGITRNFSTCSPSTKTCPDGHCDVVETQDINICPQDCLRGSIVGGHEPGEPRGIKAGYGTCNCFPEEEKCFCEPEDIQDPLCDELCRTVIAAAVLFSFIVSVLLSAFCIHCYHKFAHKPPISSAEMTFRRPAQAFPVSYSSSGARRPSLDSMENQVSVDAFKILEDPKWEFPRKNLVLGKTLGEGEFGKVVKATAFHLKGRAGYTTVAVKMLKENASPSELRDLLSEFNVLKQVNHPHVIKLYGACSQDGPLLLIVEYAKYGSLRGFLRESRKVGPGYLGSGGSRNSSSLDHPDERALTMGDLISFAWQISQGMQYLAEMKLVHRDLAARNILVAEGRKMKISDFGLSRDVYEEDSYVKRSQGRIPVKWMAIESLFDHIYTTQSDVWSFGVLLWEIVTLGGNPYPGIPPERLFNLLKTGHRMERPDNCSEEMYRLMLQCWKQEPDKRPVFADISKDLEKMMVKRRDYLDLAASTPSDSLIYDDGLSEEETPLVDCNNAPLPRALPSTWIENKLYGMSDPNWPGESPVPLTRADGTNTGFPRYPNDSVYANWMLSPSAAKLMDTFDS

Row | SMILES | EC50 [1] [µM] | EC50 [2] [µM] | EC50 [3] [µM]
1 | COc1ccc(S(=O)(=O)N2CCC(O)(c3ccccc3)CC2)cc1N1CCN(C(=O)c2ccc(F)cc2Cl)CC1 [Compound 011, (2-chloro-4-fluoro-phenyl)-[4-[5-[(4-hydroxy-4-phenyl-1-piperidyl)sulfonyl]-2-methoxy-phenyl]piperazin-1-yl]methanone] | 5 to 10 |  | 
2 | COc1ccc(S(=O)(=O)N2CCC(O)(Cc3ccccc3)CC2)cc1N1CCN(C(=O)c2ccc(F)cc2Cl)CC1 [Compound 012, [4-[5-[(4-benzyl-4-hydroxy-1-piperidyl)sulfonyl]-2-methoxy-phenyl]piperazin-1-yl]-(2-chloro-4-fluoro-phenyl)methanone] | 5 to 10 |  | 
3 | COc1ccc(S(=O)(=O)N(C)Cc2ccc(F)cc2)cc1N1CCN(C(=O)c2ccc(F)cc2Cl)CC1 [Compound 021, 3-[4-(2-chloro-4-fluoro-benzoyl)piperazin-1-yl]-N-[(4-fluorophenyl)methyl]-4-methoxy-N-methyl-benzenesulfonamide] | 5 to 10 |  | 
4 | CCCN(C)S(=O)(=O)c1ccc(OCCO)c(N2CCN(C(=O)c3ccc(F)cc3C(F)(F)F)CC2)c1 [Compound 049, 3-[4-[4-fluoro-2-(trifluoromethyl)benzoyl]piperazin-1-yl]-4-(2-hydroxyethoxy)-N-methyl-N-propyl-benzenesulfonamide] | 10 to 50 |  | 
5 | COc1ccc(S(=O)(=O)N(C)Cc2ccccc2)cc1N1CCN(C(=O)c2ccc(F)cc2Cl)CC1 [Compound 019, N-benzyl-3-[4-(2-chloro-4-fluoro-benzoyl)piperazin-1-yl]-4-methoxy-N-methyl-benzenesulfonamide] | 10 to 50 |  | 
6 | COc1ccc(S(=O)(=O)N2CCC(c3ccccc3)CC2)cc1N1CCN(C(=O)c2ccc(F)cc2Cl)CC1 [Compound 025, (2-chloro-4-fluoro-phenyl)-[4-[2-methoxy-5-[(4-phenyl-1-piperidyl)sulfonyl]phenyl]piperazin-1-yl]methanone] | < 1 |  | 
7 | COc1ccc(S(=O)(=O)N2CCC(c3ccccc3)C2)cc1N1CCN(C(=O)c2ccc(F)cc2Cl)CC1 (stereo not drawn) [Compound 028, (2-chloro-4-fluoro-phenyl)-[4-[2-methoxy-5-[3-phenylpyrrolidin-1-yl]sulfonyl-phenyl]piperazin-1-yl]methanone] | 1 to 5 |  | 
8 | CCN(CC)S(=O)(=O)c1ccc(OC)c(N2CCN(C(=O)c3cc(F)ccc3C(F)(F)F)CC2)c1 [Compound C02, N,N-diethyl-3-(4-(5-fluoro-2-(trifluoromethyl)benzoyl)piperazin-1-yl)-4-methoxybenzenesulfonamide, reference compound] |  | > 50 | > 50
9 | CCN(CC)S(=O)(=O)c1ccc(OC)c(N2CCN(C(=O)c3cc(F)c(F)cc3Cl)CC2)c1 [Compound 002, 3-[4-(2-chloro-4,5-difluoro-benzoyl)piperazin-1-yl]-N,N-diethyl-4-methoxy-benzenesulfonamide] | 5 to 10 |  | 
10 | COc1ccc(S(=O)(=O)N2CCC(Cc3ccccc3)CC2)cc1N1CCN(C(=O)c2cc(F)c(F)cc2Cl)CC1 [Compound 009, [4-[5-[(4-benzyl-1-piperidyl)sulfonyl]-2-methoxy-phenyl]piperazin-1-yl]-(2-chloro-4,5-difluoro-phenyl)methanone] | < 1 | < 1 | < 10
11 | CC(C)(C)NS(=O)(=O)c1cc(Cl)c(O)c(N2CCN(C(=O)c3ccc(F)cc3Cl)CC2)c1 [Compound 058, N-tert-butyl-3-chloro-5-[4-(2-chloro-4-fluoro-benzoyl)piperazin-1-yl]-4-hydroxy-benzenesulfonamide] | < 1 |  | 
12 | COc1ccc(S(=O)(=O)N(C)CCCC(F)(F)F)cc1N1CCN(C(=O)c2ccc(F)cc2Cl)CC1 [Compound 037, 3-[4-(2-chloro-4-fluoro-benzoyl)piperazin-1-yl]-4-methoxy-N-methyl-N-(4,4,4-trifluorobutyl)benzenesulfonamide] | 10 to 50 |  | 
13 | COc1ccc(S(=O)(=O)N(C)C2(C)COC2)cc1N1CCN(C(=O)c2ccc(F)cc2Cl)CC1 [Compound 018, 3-[4-(2-chloro-4-fluoro-benzoyl)piperazin-1-yl]-4-methoxy-N-methyl-N-(3-methyloxetan-3-yl)benzenesulfonamide] | 10 to 50 |  | 
14 | CCN(CC)S(=O)(=O)c1cnc(OC)c(N2CCN(C(=O)c3ccc(F)cc3C(F)(F)F)CC2)c1 [Compound 045, N,N-diethyl-5-[4-[4-fluoro-2-(trifluoromethyl)benzoyl]piperazin-1-yl]-6-methoxy-pyridine-3-sulfonamide] | 10 to 50 |  | 
15 | COc1ccc(S(=O)(=O)N2CCC(Cc3ccccc3)CC2)cc1N1CCN(C(=O)c2ccc(F)cc2C(F)F)CC1 [Compound 010, [4-[5-[(4-benzyl-1-piperidyl)sulfonyl]-2-methoxy-phenyl]piperazin-1-yl]-[2-(difluoromethyl)-4-fluoro-phenyl]methanone] | 1 to 5 | 1 to 5 | < 10
16 | CCCN(C)S(=O)(=O)c1ccc(OC)c(N2CCN(C(=O)c3ccc(F)cc3Cl)CC2)c1 [Compound 030, 3-[4-(2-chloro-4-fluoro-benzoyl)piperazin-1-yl]-4-methoxy-N-methyl-N-propyl-benzenesulfonamide] | 1 to 5 |  | 
17 | COc1ccc(S(=O)(=O)N2CCC(OCc3ccccc3)C2)cc1N1CCN(C(=O)c2ccc(F)cc2Cl)CC1 (stereo not drawn) [Compound 039, (2-chloro-4-fluoro-phenyl)-[4-[2-methoxy-5-[3-benzyloxypyrrolidin-1-yl]sulfonyl-phenyl]piperazin-1-yl]methanone] | 1 to 5 |  | 
18 | CCCN(C)S(=O)(=O)c1ccc(O)c(N2CCN(C(=O)c3ccc(F)cc3C(F)(F)F)CC2)c1 [Compound 048, 3-[4-[4-fluoro-2-(trifluoromethyl)benzoyl]piperazin-1-yl]-4-hydroxy-N-methyl-N-propyl-benzenesulfonamide] | 5 to 10 |  | 
19 | COc1ccc(S(=O)(=O)N(C)C(C)(C)C)cc1N1CCN(C(=O)c2ccc(F)cc2Cl)CC1 [Compound 033, N-tert-butyl-3-[4-(2-chloro-4-fluoro-benzoyl)piperazin-1-yl]-4-methoxy-N-methyl-benzenesulfonamide] | 5 to 10 |  | 
20 | COc1ccc(S(=O)(=O)N2CCCC2)cc1N1CCN(C(=O)c2ccc(Cl)cc2Cl)CC1 [Compound 003, (2,4-dichlorophenyl)-[4-(2-methoxy-5-pyrrolidin-1-ylsulfonyl-phenyl)piperazin-1-yl]methanone] | 10 to 50 |  | 
21 | COc1ccc(S(=O)(=O)N(C)CC2CCCCC2)cc1N1CCN(C(=O)c2ccc(F)cc2Cl)CC1 [Compound 015, 3-[4-(2-chloro-4-fluoro-benzoyl)piperazin-1-yl]-N-(cyclohexylmethyl)-4-methoxy-N-methyl-benzenesulfonamide] | 5 to 10 |  | 
22 | CCN(CC)S(=O)(=O)c1ccc(OC)c(N2CCN(C(=O)c3ccc(F)cc3Cl)CC2)c1 [Compound 001, 3-[4-(2-chloro-4-fluoro-benzoyl)piperazin-1-yl]-N,N-diethyl-4-methoxy-benzenesulfonamide] | 5 to 10 | 5 to 10 | < 10
23 | Cc1cc(S(=O)(=O)N2CCC(c3ccccc3)CC2)cc(N2CCN(C(=O)c3ccc(F)cc3Cl)CC2)c1O [Compound 055, (2-chloro-4-fluoro-phenyl)-[4-[2-hydroxy-3-methyl-5-[(4-phenyl-1-piperidyl)sulfonyl]phenyl]piperazin-1-yl]methanone] | < 1 |  | 
24 | COc1ccc(S(=O)(=O)N(C)C2CCCC2)cc1N1CCN(C(=O)c2ccc(F)cc2Cl)CC1 [Compound 016, 3-[4-(2-chloro-4-fluoro-benzoyl)piperazin-1-yl]-N-cyclopentyl-4-methoxy-N-methyl-benzenesulfonamide] | 5 to 10 |  | 
25 | COc1ccc(S(=O)(=O)N2CCC(CCc3ccccc3)CC2)cc1N1CCN(C(=O)c2ccc(F)cc2Cl)CC1 [Compound 024, (2-chloro-4-fluoro-phenyl)-[4-[2-methoxy-5-[[4-(2-phenylethyl)-1-piperidyl]sulfonyl]phenyl]piperazin-1-yl]methanone] | < 1 |  | 
26 | CCCN(C)S(=O)(=O)c1ccc(F)c(N2CCN(C(=O)c3ccc(F)cc3C(F)(F)F)CC2)c1 [Compound 042, 4-fluoro-3-[4-[4-fluoro-2-(trifluoromethyl)benzoyl]piperazin-1-yl]-N-methyl-N-propyl-benzenesulfonamide] | 1 to 5 |  | 
27 | COc1ccc(S(=O)(=O)N2CCN(CC(C)c3ccc(F)cc3)CC2)cc1N1CCN(C(=O)c2ccc(F)cc2Cl)CC1 (racemic) [Compound 054, (2-chloro-4-fluoro-phenyl)-[4-[2-methoxy-5-[4-[rac-(2R)-2-(4-fluorophenyl)propyl]piperazin-1-yl]sulfonyl-phenyl]piperazin-1-yl]methanone] | < 1 |  | 
28 | COc1ccc(S(=O)(=O)N2CCN(CCc3ccc(Cl)cc3)CC2)cc1N1CCN(C(=O)c2ccc(F)cc2Cl)CC1 [Compound 051, (2-chloro-4-fluoro-phenyl)-[4-[5-[4-[2-(4-chlorophenyl)ethyl]piperazin-1-yl]sulfonyl-2-methoxy-phenyl]piperazin-1-yl]methanone] | 1 to 5 |  | 
29 | COc1ccc(S(=O)(=O)N2CCC(c3ccc(F)cc3)CC2)cc1N1CCN(C(=O)c2ccc(F)cc2Cl)CC1 [Compound 050, (2-chloro-4-fluoro-phenyl)-[4-[5-[[4-(4-fluorophenyl)-1-piperidyl]sulfonyl]-2-methoxy-phenyl]piperazin-1-yl]methanone] | < 1 |  | 
